Experimental data reported in patent publication US9422283B2, “Salts and polymorphs of a substituted imidazopyridinyl-aminopyridine compound” (ArQule, Inc., priority 2014, dated 2016).
≈ marks a conversion by molar mass, not a printed value. Entries after “also recorded” stand apart in the source; their conditions may differ. Structures can show the parent of a compound that is named as a salt.

What was measured:
Format in all cases: physicochemical
[1] = Gravimetric Vapor Sorption (GVS)
Protocol: Sorption isotherms were obtained using a SMS DVS Intrinsic moisture sorption analyzer, controlled by DVS Intrinsic Control software v1.0.0.30. The sample temperature was maintained at 25° C. by the instrument controls. The humidity was controlled by mixing streams of dry and wet nitrogen, with a total flow rate of 200 ml/min. The relative humidity was measured by a calibrated Rotronic probe (dynamic range of 1.0-100% RH), located near the sample. The weight change, (mass relaxation) of the sample as a function of % RH was constantly monitored by the microbalance (accuracy ±0.005 mg).
Typically 5-20 mg of sample was placed in a tared mesh stainless steel basket under ambient conditions. The sample was loaded and unloaded at 40% RH and 25° C. (typical room conditions). A moisture sorption isotherm was performed as outlined below (4 scans giving 2 complete cycles). The standard isotherm was performed at 25° C. at 10% RH intervals over a 0-90% RH range. Data analysis was undertaken in Microsoft Excel using DVS Analysis Suite v6.0.0.7.
The sample was recovered after completion of the isotherm and re-analysed by XRPD. 7.2. Dynamic Vapour Sorption (DVS)

[2] = Thermodynamic aqueous solubility
Protocol: Aqueous solubility was determined by suspending sufficient compound in water to give a maximum final concentration of ≧10 mg/ml of the parent free-form of the compound. The suspension was equilibrated at 25° C. for 24 hours then the pH was measured. The suspension was then filtered through a glass fiber C filter. The filtrate was then diluted by an appropriate factor e.g., 101. Quantitation was by HPLC with reference to a standard solution of approximately 0.25 mg/ml in DMSO. Different volumes of the standard, diluted and undiluted sample solutions were injected. The solubility was calculated using the peak areas determined by integration of the peak found at the same retention time as the principal peak in the standard injection.
Analysis was performed on an Agilent HP1100 series system equipped with a diode array detector and using ChemStation software vB.02.01-SR1.

[3] = Storage stability of free base and salts (XRPD, IC, 1H NMR pre- and post-storage)
[4] = Dynamic Vapour Sorption (DVS)
Protocol: Approximately 10 mg of sample was placed into a mesh vapour sorption balance pan and loaded into a DVS-1 dynamic vapour sorption balance by Surface Measurement Systems. The sample was subjected to a ramping profile of 0-90%, 90-0% relative humidity (RH) at 10% increments for anhydrous samples and 30-90%, 90-0%, 0-90%, 90-0% for hydrated samples, maintaining the sample at each step until a stable weight had been achieved (99.5% step completion). The weight changes during the sorption/desorption cycles were plotted, allowing the hygroscopic nature of the sample to be determined.

[5] = Stability testing of bis-mesylate forms for 1 week (XRPD, HPLC purity)
Protocol: Form A, Form B, Form C, Form D, Form E and Form I were exposed to environments of 40° C./75% RH, ambient light (about 22° C.) and elevated temperature (80° C.) for 1 week to determine the stability. The resulting solids were analyzed by XRPD to establish if any form changes had occurred and by HPLC to determine purity.

[6] = Aqueous solubility studies of bis-mesylate forms (slurry in deionised water, HPLC, XRPD); conditions: about 24 hours; for polymorphic form after slurrying in deionised water (XRPD): ambient temperature
Protocol: Purity and concentration analyses were carried out using the following method:
• Pan Number 186003045 Column Temperature: 25° C. Autosampler Temperature: 5° C. Detection: 226 nm Mobile Phase A: 95:5:0.1% Water:Methanol:TFA Mobile Phase B: 95:5:0.1% Methanol:Water:TFA Gradient: See table below for conditions Flow Rate: 1.0 mL/minute Injection Volume: 10 μl Analysis Time: 36 minutes Re-equilibration Time: 4 minutes Data Collection time: 36 minutes Needle Wash: 100% Methanol
Slurries of Form A, Form B, Form C, Form D, Form E and Form I were created in deionised water and shaken for about 24 hours at ambient temperature (about 22° C.). The resulting solutions were then analyzed by HPLC and the aqueous solubility was determined. The remaining solids were analyzed by XRPD to determine if any form changes had occurred during slurrying.

SMILES | DVS (summary Table 21) [4] | DVS desorption behaviour / hysteresis [4] | HPLC purity after stability test ([5]; 40° C./75% RH) | polymorphic form after stability test (XRPD) ([5]; 40° C./75% RH) | HPLC purity after stability test ([5]; 80° C.) | polymorphic form after stability test (XRPD) ([5]; 80° C.) | polymorphic form after stability test (XRPD) ([5]; ambient light (about 22° C.)) | HPLC purity after stability test ([5]; ambient temperature) | polymorphic form after slurrying in deionised water (XRPD) [6] | also measured
Nc1ncccc1-c1nc2ccc(-c3ccccc3)nc2n1-c1ccc(C2(N)CCC2)cc1 [Compound A HCl salt, 3-(3-(4-(1-aminocyclobutyl)phenyl)-5-phenyl-3H-imidazo[4,5-b]pyridin-2-yl)pyridin-2-amine] | – | – | – | – | – | – | – | – | – | GVS water uptake ([1]; partial run, from 40-90% RH): partial run: ~18 wt % water uptake; solubility at 24 h ([2]; water, 25 °C, thermodynamic from solid, pH 1.2, max conc. 50 mg/ml): 8.3 mg/mL; HCl content by IC after storage ([3]; 40° C. and 75% RH, 7 days, 2.2 equi. HCl before storage): IC converted to 1.6 equi. HCl
Nc1ncccc1-c1nc2ccc(-c3ccccc3)nc2n1-c1ccc(C2(N)CCC2)cc1 [Compound A free base, 3-(3-(4-(1-aminocyclobutyl)phenyl)-5-phenyl-3H-imidazo[4,5-b]pyridin-2-yl)pyridin-2-amine] | – | – | – | – | – | – | – | – | – | solubility in water (qualitative) [2]: insoluble in water
Nc1ncccc1-c1nc2ccc(-c3ccccc3)nc2n1-c1ccc(C2(N)CCC2)cc1 [Compound A mesylate salt, 3-(3-(4-(1-aminocyclobutyl)phenyl)-5-phenyl-3H-imidazo[4,5-b]pyridin-2-yl)pyridin-2-amine] | – | – | – | – | – | – | – | – | – | change in XRPD after GVS [1]: No change in XRPD after GVS; solubility at 5 min ([2]; water, 25 °C, thermodynamic from solid, in 5 min, pH 2.1): > 50 mg/mL; change after storage ([3]; 40° C. and 75% RH, 7 days, XRPD and 1H NMR): No change in XRPD or ^1H NMR
Nc1ncccc1-c1nc2ccc(-c3ccccc3)nc2n1-c1ccc(C2(N)CCC2)cc1 [Compound A tris-HCl salt, 3-(3-(4-(1-aminocyclobutyl)phenyl)-5-phenyl-3H-imidazo[4,5-b]pyridin-2-yl)pyridin-2-amine] | – | – | – | – | – | – | – | – | – | solubility in water (qualitative) [2]: highly soluble in water; change of salt under storage ([3]; stability study under storage, XRPD): partially transformed to bis-HCl salt and/or mono-HCl salt
Nc1ncccc1-c1nc2ccc(-c3ccccc3)nc2n1-c1ccc(C2(N)CCC2)cc1 [Form 1, 3-(3-(4-(1-aminocyclobutyl)phenyl)-5-phenyl-3H-imidazo[4,5-b]pyridin-2-yl)pyridin-2-amine] | – | – | – | – | – | – | – | – | – | water uptake (GVS) ([1]; 0-90% RH): < 0.8 %, w/w; water absorption upon storage ([1]; FIG. 5 GVS isotherm): Minimal water absorption; stability under storage ([3]; 25° C. and 0-96% RH, XRPD): stable; polymorphic form change on storage ([3]; 40° C. and 75% RH, one week, XRPD): transformed to Form 2
Nc1ncccc1-c1nc2ccc(-c3ccccc3)nc2n1-c1ccc(C2(N)CCC2)cc1 [Form D, 3-(3-(4-(1-aminocyclobutyl)phenyl)-5-phenyl-3H-imidazo[4,5-b]pyridin-2-yl)pyridin-2-amine] | Hydration occurs | gradual loss of water and hence dehydration was observed as the relative humidity was decreased below 40% RH | about 99.9% | converted to Form J | about 99.9% | Form I | remained unchanged | about 99.9% | converted to Form E | DVS water uptake ([4]; second sorption cycle, between 30% and 50% RH, after dehydration at 0% RH): about 12%
Nc1ncccc1-c1nc2ccc(-c3ccccc3)nc2n1-c1ccc(C2(N)CCC2)cc1 [Form E, 3-(3-(4-(1-aminocyclobutyl)phenyl)-5-phenyl-3H-imidazo[4,5-b]pyridin-2-yl)pyridin-2-amine] | Two hydration | dehydration occurred below 10% RH | about 99.8% | remained unchanged | about 99.8% | some differences were observed | remained unchanged | about 99.7% | remained unchanged; also recorded: Form E | hygroscopicity (DVS) [4]: non-hygroscopic; polymorphic form after DVS analysis (XRPD) [4]: RH Form E post; DVS water uptake ([4]; second sorption cycle, below 20% RH): about 2.78%; DVS further water uptake ([4]; second sorption cycle, between 20% and 40% RH): 5.5%; solubility at 24 h ([6]; 22 °C, water, thermodynamic from solid, deionised water, ambient temperature (about 22° C.), read-out: aqueous solubility (HPLC concentration analysis)): ~347 mg/mL (≈ 802 mM)
Nc1ncccc1-c1nc2ccc(-c3ccccc3)nc2n1-c1ccc(C2(N)CCC2)cc1 [Form I, 3-(3-(4-(1-aminocyclobutyl)phenyl)-5-phenyl-3H-imidazo[4,5-b]pyridin-2-yl)pyridin-2-amine] | Hydration occurs | gradual loss of water/dehydration below 50% RH | about 99.8% | conversion to Form J | about 99.9% | remained unchanged | remained unchanged | about 99.6% | converted to Form E | polymorphic form after DVS analysis (XRPD) [4]: Form I post; DVS water uptake ([4]; sorption cycle, between 40% and 50% RH): about 10%
